Assay results published in article PMC8752827, “Towards a generic prototyping approach for therapeutically-relevant peptides and proteins in a cell-free translation system” (Nature Communications, 2022).
pEC50: −log10 of the molar value. “Also recorded” adds a separate entry of the source. Where a SMILES comes first, the peptide text is derived from it. Bridges are numbered along the chain shown (N, C = ends). Where no end group is shown, it is not given here.

Columns and labels:
Trypsin = target: T1, Trypsin (Bos taurus, UniProt P00760); assay: Trypsin-inhibitory assay; type: biochemical; conditions: for HillSlope / LogEC50: trypsin inhibition curve, nonlinear fit, variable slope, best-fit value
T1 construct: gene PRSS1
T1 sequence (P00760 24-246): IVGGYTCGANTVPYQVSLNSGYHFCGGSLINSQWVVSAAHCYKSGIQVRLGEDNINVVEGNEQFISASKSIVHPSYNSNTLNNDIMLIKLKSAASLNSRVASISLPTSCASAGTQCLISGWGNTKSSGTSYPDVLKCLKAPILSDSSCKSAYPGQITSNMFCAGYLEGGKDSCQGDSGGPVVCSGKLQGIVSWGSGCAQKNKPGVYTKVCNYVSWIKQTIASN
Experimental: Trypsin was freshly prepared at 400 pM in the assay buffer containing 0.1 M NaCl, 10 mM CaCl2, 0.005% Triton X-100, 0.1 M Tris-HCl pH 8.0. […] After incubation residual trypsin activity was measured by adding the quenched fluorescent peptide substrate Boc-Q-A-R- 7-amido-4-methyl-coumarin to a final concentration of 10 μM. The fluorescence increase upon the release of 7-amido-4-methyl-coumarin was monitored on Infinite M1000 Pro plate reader (Tecan) every 30 s using excitation and emission wavelengths of 360 and 460 nm, respectively.

[1] = test system: peptidyl-prolyl isomerase; conditions: 10 μM inhibitor in Ec CFS translation reaction; Supplementary Fig. 19
Experimental: For details, refer to a procedure overview in the Supplementary Methods. Briefly, E. coli S30 extract was prepared as described by Schwarz et al.[68] with minor modifications. Briefly, cells were cultivated in 5–10 L of filter-sterilized TBGG media (tryptone 12 g/L, yeast extract 24 g/L, glycerol 8 mL/L, glucose 1 g/L, KH2PO4 2.31 g/L, K2HPO4 2.54 g/L) to OD 3.5, pre-chilled with 5 × 200 or 10 × 200 mL of –80 °C pre-frozen packs of LB broth and spun at 2.5 kg for 15 min. The cell pellet from the final wash was resuspended in 200 % (vol/wt) of S30B buffer and disrupted using fluidic disruption (Constant Systems, continuous flow mode) at 20 kpsi at 4 °C. Cell homogenate was cleared by two consecutive 30 min centrifugation steps at 30 kg at 4 °C while collecting the top ¾ of supernatant every time. The final supernatant was adjusted to 0.4 M with 5 M NaCl followed by 45 min incubation at 42 °C in a water bath. […]
Fluorescence DHFR activity assay was performed by monitoring the change in NADPH fluorescence (Ex 340 nm, […]) upon its conversion to NADP^+ in 200 µL of buffer containing 20 mM Tris-HCl pH 7.5, 100 mM NaCl, 1 mM Mg(OAc)2, 0.012% Tween 20, 2.5 mM DTT in a black 96-well plate (Corning). […] Fluorescence changes were recorded for 4 h. […]

[2] = test system: Drosophila melanogaster fruit flies; assay: Insecticidal activity assay (microinjection, LD50); type: in vivo; conditions: microinjection of 50 nL into female Drosophila melanogaster, lethal effects at 24 h; thrombin-cleaved cell-free Dc1a
Experimental: The insecticidal activity of the Dc1a and its cell-free produced analog was tested by microinjection in female Drosophila melanogaster fruit flies aged 3–4 days with an average weight of 0.8–0.9 mg according to the previously described method. Briefly, the C-terminally unprocessed Dc1a (Dc1a-GTGSGG-[…]) was dissolved in water for injection, and water was used as the respective negative control. The thrombin-cleaved Dc1a sample (Dc1a-GTGSGG-R) contained thrombin and the respective amount of thrombin was added to the control sample. The injection volume was 50 nL and three repeats of seven doses (each in n = 8 fruit flies) were used for each Dc1a analog. Female Drosophila were cooled on ice before injection. […] The number of control flies affected at the respective post-injection time was subtracted from the number of affected flies.

For `CC[C@H](C)[C@H](NC(=O)[C@@H]1CCCN1C(=O)[C@@H]1CCCN1C(=O)[C@@H](NC(=O)[C@@H](N)CO)[C@@H](C)CC)C(=O)N[C@H]1CSSC[C@@H](C(=O)N[C@H](C(=O)N[C@@H](CCCCN)C(=O)O)[C@@H](C)O)NC(=O)[C@H](CCC(N)=O)NC(=O)CNC(=O)[C@H](CC(=O)O)NC(=O)[C@@H]2CCCN2C(=O)[C@H](Cc2ccccc2)NC1=O` [Cell-free_oMut-SFTI] (H-SIPPICFPDGQCTK-OH; disulfide 6-12; C-terminus assumed), the HillSlope (Trypsin) was -1.405 and the LogEC50 (Trypsin) was 2.696 log10 [SFTI], pM.
For `CC[C@H](C)[C@@H]1NC(=O)[C@@H]2CCCN2C(=O)[C@@H]2CCCN2C(=O)[C@H]([C@@H](C)CC)NC(=O)[C@H](CO)NC(=O)[C@H](CCCCN)NC(=O)[C@H]([C@@H](C)O)NC(=O)[C@@H]2CSSC[C@H](NC1=O)C(=O)N[C@@H](Cc1ccccc1)C(=O)N1CCC[C@H]1C(=O)N[C@@H](CC(=O)O)C(=O)NCC(=O)N[C@@H](CCCNC(=N)N)C(=O)N2` [Chem_cyc-SFTI], the HillSlope (Trypsin) was -1.291 and the LogEC50 (Trypsin) was 2.234 log10 [SFTI], pM.
For `CO[C@H]1C[C@@H]2CC[C@@H](C)[C@@](O)(O2)C(=O)C(=O)N2CCCC[C@H]2C(=O)O[C@H]([C@H](C)C[C@@H]2CC[C@@H](O)[C@H](OC)C2)CC(=O)[C@H](C)/C=C(\C)[C@@H](O)[C@@H](OC)C(=O)[C@H](C)C[C@H](C)/C=C/C=C/C=C/1C` [rapamycin, Rapamycin], the “effect on the gain of hDHFR activity by exposure of GFP-hDHFR to lysate (post-translational capture)” value [1] was “eliminated the beneficial effect of protein exposure to lysate in Ec CFS”.
In the case of “Dc1a-GTGSGG-R (bicyclic or more) [cell-free produced Dc1a harboring GTGSGGR on its C-terminus after thrombin cleavage]”, the “insecticidal activity, in words” value [2] was “showed the expected biological activity; also recorded: insecticidal activity similar to the synthetic wild-type toxin”.
For “GGVCPKILKKCRRDSDCPGACICRGNGYCGSGSDGLPRGSIDTWV (disulfide 4-21, 11-23, 17-29) [wtMCoTI-RGS]”, the pEC50 (Trypsin) was 9.22 and the “trypsin-inhibitory activity / Ki for trypsin, compared in words” value (Trypsin; trypsin-inhibitory assay, comparison with the named counterpart) was “almost fourfold higher Ki for trypsin”.
Compound “ILKKCRRDSDCPGACICRGNGYCGSGSDGGVCPKGAGRGSIDTWV (disulfide 5-17, 11-23, 15-32) [prmMcoTI-RGS]” has a pEC50 (Trypsin) of 9.78.
